Like-named read-outs stand apart in the source and are kept apart here.
Legend:
[1] = target: T1, ERα (Homo sapiens, UniProt P03372); experiment: ER-alpha competitive binding assay (PolarScreen ER Alpha Competitor, fluorescence polarization); conditions: read-out: CBA IC50 + SD (competitive binding affinity)
T1 construct: purchased Life Technologies
T1 sequence (P03372 1-595): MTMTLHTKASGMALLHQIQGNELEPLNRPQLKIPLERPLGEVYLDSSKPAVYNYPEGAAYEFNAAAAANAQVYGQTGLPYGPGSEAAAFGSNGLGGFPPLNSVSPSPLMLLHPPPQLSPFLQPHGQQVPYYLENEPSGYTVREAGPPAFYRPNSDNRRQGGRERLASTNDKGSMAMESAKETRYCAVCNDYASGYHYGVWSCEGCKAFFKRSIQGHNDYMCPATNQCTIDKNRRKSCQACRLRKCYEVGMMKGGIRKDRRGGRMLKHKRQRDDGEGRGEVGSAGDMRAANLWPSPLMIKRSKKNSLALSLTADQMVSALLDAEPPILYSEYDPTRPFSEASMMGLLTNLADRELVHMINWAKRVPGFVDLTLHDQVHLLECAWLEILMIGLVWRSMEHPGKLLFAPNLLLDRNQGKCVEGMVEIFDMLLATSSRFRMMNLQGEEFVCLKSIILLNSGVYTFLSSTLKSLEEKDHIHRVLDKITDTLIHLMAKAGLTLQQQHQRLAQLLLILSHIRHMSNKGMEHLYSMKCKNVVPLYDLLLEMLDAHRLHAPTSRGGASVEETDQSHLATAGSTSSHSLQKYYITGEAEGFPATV
Source text: First, to rank the novel biphenyl derivatives based on binding affinity to ERα, a commercially available fluorescence polarization assay kit (PolarScreen™ ER Alpha Competitor assay) was utilized. […] The smaller size of the free molecule can be discerned by increased mobility in the solution, which is detected by fluorescence polarization (FP). A shift in the FP value in the presence of the test compounds is used to determine the relative affinity of test compounds for ERα.
The assay was performed as per the manufacturer’s instructions. The Fluorescence polarization value (mP) of each well on a fluorescence polarization plate was measured using fluorescence polarization Tecan infinite M1000PRO multimode microplate reader (Tecan, Switzerland). Data were modelled using GraphPad Prism® software from GraphPad Software, Inc..

[2] = tested on: MCF7 cells; experiment: AlamarBlue cell viability assay, MCF7; format: cell-based, human; conditions: read-out: Cell Viability (MCF7 Cells) IC50 ± SD
Method: (§1) Next, we determined the potential functional effects of novel ATBA compounds on the viability of MCF7 cells using an AlamarBlue® cell viability assay. […] We also determined the functional efficacy of the 4c compound in additional ER+ MC cell lines using an AlamarBlue® cell viability assay.
The human Michigan Cancer Foundation-7 (MCF7) cell line was obtained from the American Type Culture Collection (ATCC, Rockville, Gaithersburg, MD, USA) and was cultured as per ATCC propagation instructions.
(§2) AlamarBlue®, 3D Matrigel, and luciferase assay: AlamarBlue® cell viability kits were obtained from ThemoFisher Scientific (Waltham, Massachusetts, USA), and the assay was performed as previously described. 3D Matrigel assays were performed as previously described. Luciferase assays were performed as previously described. Briefly, transfections were carried out in triplicate using 1 μg of the appropriate luciferase reporter construct or empty vector along with 0.1 μg of Renilla luciferase construct as a control for transfection efficiency. Luciferase activities were measured using the Dual-Luciferase Assay System (Promega Corp, Madison, WI, USA).

[3] = tested on: T47D cells; experiment: AlamarBlue cell viability assay, T47D; format: cell-based; conditions: Homo sapiens
Method: as §1, §2

[4] = tested on: BT474 cells; experiment: AlamarBlue cell viability assay, BT474; format: cell-based; conditions: Homo sapiens, BT-474
Method: as §1, §2

[5] = tested on: MDA-MB-361 cells; experiment: AlamarBlue cell viability assay, MDA-MB-361; format: cell-based; conditions: Homo sapiens
Method: as §1, §2

[6] = tested on: MCF7 cell-generated spheroids; experiment: 3D Matrigel spheroid cell viability; format: cell-based, human; conditions: preformed MCF7 spheroids in 3D Matrigel, 5 µM, 72 h
Method: Furthermore, we examined the effect of the novel biphenyl derivatives on preformed spheroids generated using MC cells in 3D Matrigel (Figure 2).
as §2
Figure 2 Cell viability of MCF7 cell-generated spheroids after culture in 3D Matrigel for 10 days. Preformed MCF7 cell-generated spheroids were treated with compounds for 72 h before assessing cell viability. A concentration of 5 µM was used for the treatment. The cell viability of the MCF7 cell-generated spheroids was evaluated using an AlamarBlue® viability assay as described in the Materials and Methods section. Bars are the mean of triplicate experiments; bars, ±SD. ** P < 0.001, * P < 0.05.

[7] = tested on: oestrogen response element (ERE) transcriptional activity (ERα); experiment: ERE-luc luciferase reporter assay in MCF7 cells; format: cell-based, human; conditions: for antagonist activity against ERα (luciferase activity): MCF7 cells, with E2 10^-8 M, compounds 10^-10 to 10^-4 M
Method: as §2, with “Next, to evaluate the activity of the synthesized compounds as agonists or antagonists to ERα, a reporter assay was performed with ERE-luc. […] AlamarBlue®,” for “AlamarBlue®,”, “USA). […] (lower panel). MCF7 cells were co-transfected with ERE-luc (firefly luciferase) and Renilla luciferase constructs as described in the Materials and Methods section. […] Results are shown as mean (+SD for triplicate transfection).” for “USA).”

[8] = tested on: CCND1 protein expression; experiment: Western blot of CCND1 in MCF7 cells; format: cell-based, human
Method: Increased expression of CCND1 is associated with approximately 50% of breast cancer cases and directly regulated by ER signalling. To determine functional effects downstream of ERα, we examined the effect of ATBA compounds on hCCND1 protein expression in MC cells. […] Western blot analysis: Western blot analysis was performed as previously described, using a primary monoclonal antibody against CCND1 and β-ACTIN obtained from Cell Signalling, Danvers, Massachusetts, USA. Quantification of blot was performed by use of ImageJ software from NIH, USA (http://imagej.nih.gov/ij/) as described previously. […] Soluble whole-cell extracts were run on an SDS-PAGE and immunoblotted. β-ACTIN was used as input control for cell lysate (left side). The predicted sizes of detected protein bands in kDa are shown on the left side. The average of three independent densitometry analyses of CCND1 and β-ACTIN is shown above (right side) by use of Image J software from NIH, USA (http://imagej.nih.gov/ij/) as described previously.

[9] = vNN-ADMET prediction: MRTD; conditions: relative to TAM

| SMILES | IC50 [1] [µM] | IC50 ([2]; Homo sapiens, MCF7, AlamarBlue) [µM] | IC50 ([2]; AlamarBlue) [µM] | cell viability of spheroids compared to vehicle (DMSO) [6] | antagonist activity against ERα (luciferase activity) [7] | further results |
| --- | --- | --- | --- | --- | --- | --- |
| COc1ccc(Nc2ccc(Cl)cc2)cc1C12CC3CC(CC(C3)C1)C2 [4a, 3-(Adamantan-1-yl)-N-(4-chlorophenyl)-4-methoxyaniline] | 0.34 | > 50 | – | – | – | – |
| COc1ccc(Nc2ccc(OC)c(C34CC5CC(CC(C5)C3)C4)c2)cc1 [4b, 3-(Adamantan-1-yl)-4-methoxy-N-(4-methoxyphenyl) aniline] | 0.202 | > 50 | – | – | – | – |
| COc1ccc(Nc2ccc(C(F)(F)F)cc2)cc1C12CC3CC(CC(C3)C1)C2 [4c, 3-(Adamantan-1-yl)-4-methoxy-N-(4-(trifluoromethyl)phenyl) aniline] | 0.0628 | 6.4 | 6.29 ± 2.41 | significantly decreased cell viability | most potent antagonist activity against ERα in a dosage-dependent manner | IC50 [3]: 7.38 µM; IC50 [4]: 6.36 µM; IC50 [5]: 8.31 µM; inhibitory effect on spheroids compared to TAM-treated spheroids [6]: significant inhibitory effect compared to TAM-treated MC cell-generated spheroids; inhibitory effect on spheroids compared to TAM-treated spheroids ([6]; listed as AMTA): superior inhibitory effect compared to tamoxifen-treated MC cell spheroids; IC50 ([7]; Homo sapiens, MCF7): 0.83 ± 0.06 µM; antagonist activity against ERα (luciferase activity) ([7]; listed as AMTA): significantly deceased ERE transcriptional activity; CCND1 protein levels [8]: most potently decreased the protein levels of CCND1 in MC cells in the nanomolar range; CCND1 protein levels ([8]; listed as AMTA): significantly decreased protein levels of oestrogen-regulated CCND1 in a dose-dependent manner; predicted maximum recommended therapeutic dose compared to TAM [9]: approximately four times higher |
| COc1ccc(Nc2cccc(O)c2)cc1C12CC3CC(CC(C3)C1)C2 [4d, 3-((3-(Adamantan-1-yl)-4-methoxyphenyl)amino) phenol] | 0.0826 | 8.81 ± 1.85 | – | significantly decreased cell viability | most potent antagonist activity against ERα in a dosage-dependent manner | – |
| COc1ccc(Nc2ccc(C)cc2)cc1C12CC3CC(CC(C3)C1)C2 [4f, 3-(Adamantan-1-yl)-4-methoxy-N-(p-tolyl) aniline] | 0.0985 | 12.3 ± 3.77 | – | significantly decreased cell viability | most potent antagonist activity against ERα in a dosage-dependent manner | – |
| COc1ccc(Nc2cccnc2)cc1C12CC3CC(CC(C3)C1)C2 [4g] | 0.129 | 12.1 ± 3.07 | – | significantly decreased cell viability | most potent antagonist activity against ERα in a dosage-dependent manner | – |
| COc1ccc(Nc2ccc(C)cn2)cc1C12CC3CC(CC(C3)C1)C2 [4h] | 0.189 | ~50 | 42.2 ± 9.31 | – | – | – |
| COc1ccc(Nc2cccc3ccccc23)cc1C12CC3CC(CC(C3)C1)C2 [4i] | 0.264 | ~50 | 47.6 ± 7.48 | – | – | – |

Reference: paper PMC7913524, “Novel Biphenyl Amines Inhibit Oestrogen Receptor (ER)-α in ER-Positive Mammary Carcinoma Cells” (Molecules, 2021)
